Data taken from US5686424A, “2-oxoethyl derivatives as immunosuppressants” (Miles Inc., priority 1995, dated 1997).
Where two headings read alike, the source gives them in different places.

Key:
FKBP = FKBP (Homo sapiens, UniProt P62942); test: PPIase Inhibition Assay; assay type: biochemical
Protocol: 1) Inhibition of PPIase Activity
This assay follows in principle the procedure described in Kofron et al., 1991, Biochemistry 30:6127.
The three main reagents used are PPIase, a substrate for PPIase, and a selected inhibitor compound of the present invention. The basic principle behind this assay is the conversion of the cis isomer of the substrate to the trans form, which conversion is catalyzed by PPIase. Essentially, inhibition of this PPIase activity is measured for the selected compounds. A peptide chymotrypsin substrate containing a proline in the P2 position is only cleaved by chymotrypsin when the Phe-Pro bond is in the trans isomeric configuration. In the presence of excess chymotrypsin, all of the trans peptide isomers are cleaved within approximately five seconds, leaving only cis forms.
The cis peptide will spontaneously convert to the trans isomer at a slow rate. The cis to trans conversion is catalyzed by isomerases at a much faster rate than this spontaneous conversion. Proteins with PPIase activity are examples of such isomerases. After isomerization, the peptide is cleaved by chymotrypsin releasing p-nitroaniline which can be monitored at 390 nm. The rate of release is then calculated using a first order rate plus offset equation utilizing the ENZFITTER program (Leatherbarrow, BIOSOFT, Cambridge, United Kingdom).
In a plastic cuvette are added 950 ul of ice cold assay buffer (25 mM HEPES, pH 7.8, 100 mM NaCl), 10 uL of FKBP (2.5 uM in 10 mM Tris-Cl pH 7.5, 100 mM NaCl, 1 mM dithiothreitol), 25 ul of chymotrypsin (50 mg/ml in 1 mM HCl) and 10 ul of the test compound at various concentrations in dimethyl sulphoxide. The reaction is initiated by addition of 5 ul of substrate (Succinyl-Ala-Phe-Pro-Phe-para-nitroanilide, 5 mg/ml in 235 mM LiCl in trifluoroethanol).
The absorbance at 390 nm versus time is monitored for 90 sec using a Beckman DU70 spectrophotometer. The absorbance versus time data files are transferred to an IBM XT computer and the rate constants determined using the commercial enzfitter program. For each set of data, the uncatalyzed rate of conversion is measured and the uninhibited enzymatic rate determined. The data are expressed as % Activity remaining and are calculated as follows:
% Activity Remaining=(kobs -kuncat)/(kuninh
where kobs is the rate in the presence of a selected test compound, kuncat is the rate in the absence of enzyme, and kuninh is the rate in the presence of enzyme
Data was plotted as the velocity in the absence of the inhibitor (V-) divided by the velocity in the presence of inhibitor (V+) versus the inhibitor concentration. The IC50 can be determined following linear regression as the inhibitor concentration where

human T-cells = test: Suppression of Human T-Cell Proliferation Assay (PHA-stimulated, [3H]-thymidine incorporation); assay type: cell-based; settings: read-out: IC50
Text: 2) Human T Lymphocyte Inhibition
Inhibition of mitogen-induced T-cell proliferation can be used to profile immunosuppressive activity of test compounds. In the description of the assay which follows, mitogen-induced T-cell activation was used to test the inhibitory potencies of select compounds of the present invention.
In an assay similar to that described by Bradley in Mishell et al. (Eds.), 1980, Selected Methods in Cellular Immunology, pp 156-161, W. H. Freeman & Co., San Fransisco, Calif., T-cells were stimulated by incubation with phytohemagglutinin (PHA) which binds to cell surface molecules, including the T-cell receptor. This stimulation results in proliferation which can be measured by incorporation of [^3 H]-thymidine into cellular DNA.
The immunosuppressive properties of the compounds of the present invention can be determined by adding various concentrations of the compounds to these cultures and measuring the effect on T-cell proliferation.
Suppression of Human T-Cell Proliferation Assay
Fresh LeukoPaks were obtained from the New York Blood Center, New York, N.Y. The cells, including erythrocytes and leukocytes, were diluted with Hank's Balanced Salt Solution (HBSS) (GIBCO, Grand Island, N.Y.) and layered over Lymphoprep (Nycomed Pharma AS, Oslo, Norway) in sterile 50 ml conical centrifuge tubes. Lymphocytes were isolated at the Hank's/Nycomed interface after centrifugation at 2000×g, 4° C. for 15 min. The lymphocytes were washed with Minimal Essential Medium (GIBCO) containing 2% fetal bovine serum (FBS) (Sigma Chemical Co., St. Louis, Mo.), 1% HEPES buffer (GIBCO) and 1% Penicillin-Stretomycin solution (GIBCO).
T-cells were further purified essentially by sheep erythrocyte (SRBC) rosetting as described by Morimoto et al., 1983, J. Immunol. 130:157. The isolated lymphocytes were adjusted to 2×10^7 cells/ml and 5 ml aliquots of the cell suspension were incubated for 10 minutes at room temperature with 5 ml of a 5% SRBC (Cappel, Organon Technika Corp., West Chester, Pa.) suspension. The cells were gently pelleted by centrifugation at 300 rpm for 10 minutes, followed by a 1 hour incubation at room temperature to allow rosette formation. The cells were gently resuspended,layered over Lymphoprep and centrifuged for 30 minutes at 500×g. The pellet, containing rosetted T-cells and SRBC was treated with ice cold buffered ammonium chloride (GIBCO) to lyse the erythrocytes. T-cells were washed twice with HBSS.
Purified T-cells were resuspended at 2×10^6 cells/ml in complete culture medium composed of RPMI-1640 (Whittaker Bioproducts, Walkerville, Md.) with 10% FBS (Sigma), 2 mM L-glutamine (GIBCO), 1% Penicillin-Streptomycin (GIBCO) and 15 mM HEPES (GIBCO). In 96-well plates (Becton Dickinson, Lincoln Park, N.J.), 0.1 ml aliquots of T-cell suspension were mixed with 0.05 ml of 40 μg/ml PHA-M (Sigma). The compounds of this invention were dissolved in dimethylsulfoxide at 10 mM and various dilutions in complete medium were added in duplicate wells (0.05 ml/well). The plates were incubated at 37° C. in a humidified atmosphere of 5% carbon dioxide and 95% air for 72 hours.
Proliferation was assessed by measurement of [^3 H]-thymidine incorporation. During the last 6 hours of incubation, the cells were pulse labelled with 1 μCi/well of [^3 H]-thymidine (New England Nuclear, Boston, Mass.). The cells were harvested onto glass fiber paper using a plate harvester and the radioactivity incorporated into cellular DNA corresponding to individual wells was measured by standard liquid scintillation counting methods.

[1] = concentration of inhibitor required for 50% inhibition of enzyme activity, FKBP, substrate Succinyl-Ala-Phe-Pro-Phe-para-nitroanilide, TABLE I
[2] = concentration inhibiting [3H]-thymidine incorporation of PHA-stimulated T-cells by 50%, 72 hours, TABLE 2

Chain of FKBP (P62942 whole entry): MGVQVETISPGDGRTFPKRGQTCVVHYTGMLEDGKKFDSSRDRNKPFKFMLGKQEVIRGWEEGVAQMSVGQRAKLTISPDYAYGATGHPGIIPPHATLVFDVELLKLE

Structure (SMILES) | IC50 (FKBP; [1]) | IC50 (human T-cells; [2]) | IC50 (FKBP) | IC50 (human T-cells)
C/C=C/C=C/COC(=O)CN1CCC[C@H]1C(=O)N[C@H](C(=O)NCc1ccccc1)[C@@H](C)CC (relative stereo) [Example 12, L-Isoleucine, N-[1-(2-(trans,trans-Hexa-2,4-dienyl-1-oxy)-2-Oxoethyl)-L-Prolyl] Benzylamide] | 5.8 µM | 35 µM | – | –
CC[C@H](C)[C@H](NC(=O)[C@@H]1CCCN1CC(=O)OCc1ccccc1)C(=O)NCc1ccccc1 [Example 5, L-Isoleucine, N-[1-(2-Benzyloxy-2-Oxoethyl)-L-Prolyl] Benzylamide] | 2.2 µM | – | – | –
CC[C@H](C)[C@H](NC(=O)[C@@H]1CCCN1CC(=O)OC)C(=O)NCc1ccccc1 [Example 6, L-Isoleucine, N-[1-(2-Methoxy-2-Oxoethyl)-L-Prolyl] Benzylamide] | – | – | < 50 µM | –
CC[C@H](C)[C@H](NC(=O)[C@@H]1CCCN1CC(=O)c1ccccc1)C(=O)NCc1ccccc1 [Example 7, L-Isoleucine, N-[1-(2-Phenyl-2-Oxoethyl)-L-Prolyl] Benzylamide] | 2.7 µM | < 50 µM | – | –
CC[C@H](C)[C@H](NC(=O)[C@@H]1CCCN1CC(=O)c1ccc2ccccc2c1)C(=O)NCc1ccccc1 [Example 8, L-Isoleucine, N-[1-(2-Naphth-2-yl-2-Oxoethyl)-L-Prolyl] Benzylamide] | 3.4 µM | 50 µM | – | –
CC[C@H](C)[C@H](NC(=O)[C@@H]1CCCN1CC(=O)c1ccc(-c2ccccc2)cc1)C(=O)NCc1ccccc1 [Example 9, L-Isoleucine, N-[1-(2-(Biphenyl-4-yl)-2-Oxoethyl)-L-Prolyl] Benzylamide] | – | – | < 50 µM | 50 µM
CC[C@H](C)[C@H](NC(=O)[C@@H]1CCCN1CC(=O)c1sc2ccc(Cl)cc2c1C)C(=O)NCc1ccccc1 [Example 11, L-Isoleucine, N-[1-(2-(5-Chloro-3-Methyl-benzo[B]thiophene-2-yl)-2-Oxoethyl)-L-Prolyl] Benzylamide] | 50 µM | 34 µM | – | –
CC[C@H](C)[C@H](NC(=O)[C@@H]1CCCN1CC(=O)c1ccc(Cl)cc1)C(=O)NCc1ccccc1 [Example 13, L-Isoleucine, N-[1-(2-(4-Chlorophenyl)-2-Oxoethyl)-L-Prolyl] Benzylamlde] | < 50 µM | > 50 µM | – | –
CC[C@H](C)[C@H](NC(=O)[C@@H]1CCCN1CC(=O)c1ccc(C)cc1)C(=O)NCc1ccccc1 [Example 14, L-Isoleucine, N-[1-(2-(4-Methylphenyl)-2-Oxoethyl)-L-Prolyl] Benzylamide] | < 50 µM | > 50 µM | – | –
CC[C@H](C)[C@H](NC(=O)[C@@H]1CCCN1CC(=O)c1ccc(OC)cc1)C(=O)NCc1ccccc1 [Example 15, L-Isoleucine, N-[1-(2-(4-Methoxylphenyl)-2-Oxoethyl)-L-Prolyl] Benzylamide] | < 50 µM | 17 µM | – | –
CC[C@H](C)[C@@H](C(=O)NCc1ccccc1)N(C)C(=O)[C@@H]1CCCN1CC(=O)c1ccccc1 [Example 16, L-Isoleucine, N-Methyl-N-[1-(2-Phenyl-2-Oxoethyl)-L-Prolyl] Benzylamide] | > 50 µM | > 50 µM | – | –
CC[C@H](C)[C@H](NC(=O)[C@@H]1CCCN1CC(=O)c1ccc(OC)cc1OC)C(=O)NCc1ccccc1 [Example 28, L-Isoleucine, N-[1-(2-(2,4-Dimethoxyphenyl)-2-Oxoethyl)-L-Prolyl] Benzylamide] | < 50 µM | – | – | –
CC[C@H](C)[C@H](NC(=O)[C@@H]1CCCN1CC(=O)c1ccccc1[N+](=O)[O-])C(=O)NCc1ccccc1 [Example 29, L-Isoleucine, N-[1-(2-(2-Nitrophenyl)-2-Oxoethyl)-L-Prolyl] Benzylamide] | < 50 µM | – | – | –
CC[C@H](C)[C@H](NC(=O)[C@@H]1CCCN1CC(=O)c1ccc([N+](=O)[O-])cc1)C(=O)NCc1ccccc1 [Example 30, L-Isoleucine, N-[1-(2-(4-Nitrophenyl)-2-Oxoethyl)-L-Prolyl] Benzylamide] | < 50 µM | – | – | –
CC[C@H](C)[C@H](NC(=O)[C@@H]1CCCN1CC(=O)c1ccc(-c2ccccc2)cc1)C(=O)N1CCc2ccccc2C1 [Example 50, L-Isoleucine, N-[1-(2-(Biphenyl-4-yl)-2-Oxoethyl)-L-Prolyl] 1,2,3,4-Tetrahydroisoquinolinamide] | – | – | 50 µM | –
CC[C@H](C)[C@H](NC(=O)[C@@H]1CCCN1CC(=O)c1ccc(-c2ccccc2)cc1)C(=O)OCc1ccccc1 [Example 51, L-Isoleucine, N-[1-(2-(Biphenyl-4-yl)-2-Oxoethyl)-L-Prolyl] Benzyl Ester] | – | – | > 50 µM | –
CSCC[C@H](NC(=O)[C@@H]1CCCN1CC(=O)c1ccc(-c2ccccc2)cc1)C(=O)NCc1ccccc1 [Example 54, L-Methionine, N-[1-(2-(Biphenyl-4-yl)-2-Oxoethyl)-L-Prolyl] Benzylamide] | – | – | > 50 µM | –
CCOC(=O)C1CCCN(C(=O)CN2CCC[C@H]2C(=O)N[C@H](C(=O)NCc2ccccc2)[C@@H](C)CC)C1 (stereo partly drawn) [Example 72, L-Isoleucine, N-[1-[2-[N-(Piperidine-3-Carboxylic Acid Ethyl Ester)]-2-Oxoethyl]-L-Prolyl] Benzylamide] | < 5 µM | – | – | –
CC[C@H](C)[C@H](NC(=O)[C@@H]1CCCN1CC(=O)NC1CCCC1)C(=O)NCc1ccccc1 [Example 79, L-Isoleucine, N-[1-[2-(N-Cyclopentylamino)-2-Oxoethyl]-L-Prolyl] Benzylamide] | > 5 µM | – | – | –
CC[C@H](C)[C@H](NC(=O)[C@@H]1CCCN1CC(=O)NCc1ccccc1)C(=O)NCc1ccccc1 [Example 80, L-Isoleucine, N-[1-[2-(N-(Phenylmethylamino))-2-Oxoethyl]-L-Prolyl] Benzylamide] | > 5 µM | – | – | –
CC[C@H](C)[C@H](NC(=O)[C@@H]1CCCN1CC(=O)NCC1CCCCC1)C(=O)NCc1ccccc1 [Example 81, L-Isoleucine, N-[1-[2-(N-(Cyclohexylmethylamino))-2-Oxoethyl]-L-Prolyl] Benzylamide] | > 5 µM | – | – | –
